Test results: patent publication US5900406A, “Use of antibiotics of the type 2-deoxystreptamine substituted with aminosugars to inhibit growth of microorganisms containing group I introns” (NZYM, Inc., priority 1991, dated 1999)

Key:
[1] = tested on: td intron (group I intron of the thymidylate synthase gene of phage T4, truncated version); conditions: td intron self-splicing; read-out: Michaelis constant (Km) for GTP; cited from earlier work
[2] = tested on: group II bI1 intron (first intron of the yeast mitochondrial apocytochrome b gene); assay: In vitro splicing of a group II intron in the presence of aminoglycosides; type: biochemical; conditions: concentrations ≤5 mM
Experimental: FIG. 2c, Precursor -A of the group II bli intron (first intron of the yeast mitochondrial apocytochrome b gene) was incubated in a splicing buffer (40 mM Tris-HCl, pH 7.5, 60 mM MgCl2, 625 mM (NH4)2 SO4, 2 mM spermidine) at 42° C. for 60 min with increasing amounts of gentamicin as indicated. Splicing products were separated as in FIG. 2 A. C is an unincubated control.
(§1) Materials and Methods: In vitro splicing experiments were performed with a truncated version of the td gene, containing 79 nt of exon I, 265 nt of intron sequences containing only the catalytic core (delta P6-2) and 21 nt of exon H (Schroeder, von Ahsen, & Belfort, 199 1, Biochemistry 30, 3295). The plasmids containing the Tetrahymena rRNA intron and the yeast mitochondrial cob intron I (the group II intron) were pBGST7 (Been & Cech, 1986, Cell 47, 207) and pBSbIl (Schmelzer and Schweyen, 1986, Cell 46, 557), respectively. The sunY intron is described in Michel et al. (1990, Genes & Development 4, 777). DNA was prepared by the alkaline-lysis procedure and linearized with appropriate restriction enzymes. Transcription was performed in a total volume of 20 μl at 30° C. for one (1) hour in buffer containing 40 mM Tris-HCl pH 7.5, 3 mM MgCl2, 0.4 mM spermidine, 1 mM of each NTP, 5 mM DTIC, 10 units T7 RNA polymerase (Boehringer Mannheim), 10 μCi alpha-^35 S-CTP and 10 units RNAse inhibitor (Boehringer Mannheim). […]

[3] = tested on: td intron (group I intron of the thymidylate synthase gene of phage T4, truncated version); type: biochemical
Experimental: In vitro-transcribed and gel-purified^8 preRNA from a truncated version of the td intron^21 was incubated in a splicing buffer (50 mM Tris-HCl, pH 7.5, 5 mM MgCl2, 0.4 mM spermidine) for 10 min at 37° C. with GTP and gentamicin as indicated. Samples were separated on 5% acrylamide/7 M urea gels. RNA species are as follows: In-E2, intron-exon 2; L-ln, linear intron; E1-E2, ligated exons; E1, exon 1.
FIGS. 3a-c, Splicing experiments were done with the td intron as described in FIG. 2a, using several members of each family of aminoglycoside antibiotics (gentamicin, kanamycin and neomycin). Structures of the antibiotics can be found in Davies and Yagisaura in Biochemistry and Genetic Function Of Commercially Important Antibiotics, p. 329-354, Addison-Wesley, London, (1983) "Conc" is the antibiotic concentration at which about 50% inhibition was observed.
To monitor the splice process in vitro precursor RNA containing exon1, intron and exon2 was synthesized by in vitro transcription using bacteriophage RNA polymerase. During transcription, a radioactive labeled nucleotide was present in the nucleotide mixture and was incorporated in the RNA. This radioactive labeled RNA was then subjected to splicing conditions and after reaction the RNA splice products were separated from each other by electrophoresis on a denaturing acrylamide gel. The gel was dried and exposed for autoradiography.
Unspliced precursor RNA from the thymidylate synthase gene of the phage T4, which had been transcribed in vitro, and purified as previously described, (Schroeder, R., von Ahsen, U. & Belfort, M. Biochemistry 30, 3295-3303 (1991)) was incubated with increasing amounts of gentamicin under normal splicing conditions.
(§2) Materials and Methods: In vitro splicing experiments were performed with a truncated version of the td gene, containing 79 nt of exon I, 265 nt of intron sequences containing only the catalytic core (delta P6-2) and 21 nt of exon H (Schroeder, von Ahsen, & Belfort, 199 1, Biochemistry 30, 3295). The plasmids containing the Tetrahymena rRNA intron and the yeast mitochondrial cob intron I (the group II intron) were pBGST7 (Been & Cech, 1986, Cell 47, 207) and pBSbIl (Schmelzer and Schweyen, 1986, Cell 46, 557), respectively. The sunY intron is described in Michel et al. (1990, Genes & Development 4, 777). DNA was prepared by the alkaline-lysis procedure and linearized with appropriate restriction enzymes. Transcription was performed in a total volume of 20 μl at 30° C. for one (1) hour in buffer containing 40 mM Tris-HCl pH 7.5, 3 mM MgCl2, 0.4 mM spermidine, 1 mM of each NTP, 5 mM […], 10 units T7 RNA polymerase (Boehringer Mannheim), 10 μCi alpha-^35 S-CTP and 10 units RNAse inhibitor (Boehringer Mannheim). The reaction mixture was loaded on a 5% polyacrylamide/7 M urea gel. Precursor RNA was cut out of the gel and soaked in 400 μl elution buffer (10 mM Tris-HCl pH 7.5, 10 mM EDTA, 3.5 M NH4 OAc, 0.1% SDS) for two hours. After ethanol precipitation, the RNA was dissolved in H2 O-- before splicing experiments were performed the RNA was incubated in splicing buffer (40 mM Tris-HCl pH 7.5, 8 mM MgCl2, 0.4 mM spermidine) for 2 min at 56° C. For splicing of the suny intron and the Tetrahymena intron 50 mM NH4 Cl or 200 mM NaCl were added, respectively. Splicing was initiated by addition of guanosine at the appropriate concentration at 37° C. When splicing was to be inhibited by antibiotic, the antibiotic was added immediately before the guanosine. Splicing reactions were performed at 37° C. for 10'.

[4] = tested on: group I intron from the ribosomal RNA from Tetrahymena thermophila; assay: In vitro splicing inhibition of the Tetrahymena rRNA group I intron; type: biochemical; conditions: read-out: concentration giving 50% inhibition of splicing
Experimental: To see whether this inhibition could be extended to all group I introns, the group I intron from the ribosomal RNA from Tetrahymena thermophila was tested for sensitivity towards gentamicin and again the splice reaction was inhibited. To test the specificity of this interaction of gentamicin with this type of catalytic RNA […]
as §1, with “enzymes.” for “enzymes. Transcription was performed in a total volume of 20 μl at 30° C. for one (1) hour in buffer containing 40 mM Tris-HCl pH 7.5, 3 mM MgCl2, 0.4 mM spermidine, 1 mM of each NTP, 5 mM DTIC, 10 units T7 RNA polymerase (Boehringer Mannheim), 10 μCi alpha-^35 S-CTP and 10 units RNAse inhibitor (Boehringer Mannheim).”

[5] = tested on: sunY intron (shortened version, construct SYC1.3); assay: In vitro splicing inhibition of the sunY group I intron (GTP incorporation assay); type: biochemical, T4-phage
Experimental: as §2, with “DNA” for “Materials and Methods: In vitro splicing experiments were performed with a truncated version of the td gene, containing 79 nt of exon I, 265 nt of intron sequences containing only the catalytic core (delta P6-2) and 21 nt of exon H (Schroeder, von Ahsen, & Belfort, 199 1, Biochemistry 30, 3295). The plasmids containing the Tetrahymena rRNA intron and the yeast mitochondrial cob intron I (the group II intron) were pBGST7 (Been & Cech, 1986, Cell 47, 207) and pBSbIl (Schmelzer and Schweyen, 1986, Cell 46, 557), respectively. The sunY intron is described in Michel et al. (1990, Genes & Development 4, 777). DNA”, “10'. […] Samples were separated on 5% acrylamide/7 M urea gels.” for “10'.”

Compound | Km [1] [nM] | inhibition of splicing of the group II intron [2] | lowest concentration with splicing inhibition activity ([3]; activity at a concentration as low as) [µM] | antibiotic concentration affecting the first step of splicing ([3]; first step affected only at this concentration) [µM] | IC50 ([3]; in vitro splicing, 37° C., 10 min, read-out: concentration giving approximately 50% inhibition of the second splice step of the td intron) [nM] | concentration at which the second step (cleavage at the 3' splice-site and exon ligation) is completely inhibited ([3]; GTP 2.5 μM or 100 μM) [µM] | effect on the first step of splicing ([3]; concentrations ≤2 mM, whatever the guanosine concentration) | IC50 [4] [µM] | concentration to which the sunY intron is sensitive [5] [µM]
Nc1nc2c(ncn2[C@@H]2O[C@H](COP(=O)(O)OP(=O)(O)OP(=O)(O)O)[C@@H](O)[C@H]2O)c(=O)[nH]1 [GTP] | 1000 | – | – | – | – | – | – | – | –
NC[C@H]1O[C@H](O[C@H]2[C@H](O)[C@@H](O[C@H]3O[C@H](CO)[C@@H](O)[C@H](N)[C@H]3O)[C@H](N)C[C@@H]2N)[C@H](N)C[C@@H]1O [Tobramycin] | – | not inhibited | 0.5 | 100 | ~500 | – | – | – | –
gentamicin | – | not inhibited | – | – | – | 2.5 | little effect | ~100 | 100
